Patent publication US20090038025A1, “Selection system for maize transformation” (BASF Plant Science GmbH, priority 2005, published 2009)

Tested on: corn immature embryos
Assay: Immature embryo germination inhibition bioassay (kill curves)
Assay type: cell-based, Zea mays
Conditions: immature embryos 2 mm on germination medium, 27° C. in light; shoot and primary root length 7 days after dissection
Description: In order to establish effective concentrations of D-Serine and D-Alanine on inhibiting growth of tissue cultured corn cells, a bioassay system using immature embryos was applied. Immature embryos 2 mm in length were dissected onto germination medium with the selection agents, and incubated at 27° C. in light. The lengths of the shoot and primary root of a germinated seedling were measured 7 days after embryo dissection (FIGS. 1A and 1B).

SMILES | concentration above which significant/pronounced growth inhibition occurs
C[C@@H](N)C(=O)O [D-Alanine] | higher than 2 mM
N[C@H](CO)C(=O)O [D-Serine] | higher than 9 mM
